Structures can show the parent of a compound that is named as a salt. Residues, ends and D or L forms follow the SMILES beside them. *: point of attachment. Cbz = O=C(OCc1ccccc1)*
These compounds were tested against T1, PDCL3 (Homo sapiens, UniProt Q9H2J4) (assay: High throughput screening of LOPAC1280 for small molecule inhibitors of PDCL3). Conditions: LOPAC1280, 1,280 pharmacologically active compounds.
T1 sequence (Q9H2J4 1-239): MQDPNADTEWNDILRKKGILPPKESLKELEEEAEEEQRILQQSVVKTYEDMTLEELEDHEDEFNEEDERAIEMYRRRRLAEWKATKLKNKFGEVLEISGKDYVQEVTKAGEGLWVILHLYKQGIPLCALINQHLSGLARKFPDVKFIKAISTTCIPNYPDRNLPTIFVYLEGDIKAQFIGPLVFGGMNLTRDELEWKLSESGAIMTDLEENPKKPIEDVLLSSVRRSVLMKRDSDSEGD
Source text: (§1) Given that PDCL3 plays a fundamental role in maturation and folding of receptor tyrosine kinases (RTKs), such as VEGFR-2, and considering that activity of these RTKs are cornerstone of tumor growth and metastasis, it was decided to screen for small molecule inhibitors that could antagonize PDCL3 function in tumor cells. LOPAC1280 (a library of Pharmacologically Active Compounds), which is a collection of 1,280 pharmacologically active compounds, was used. The library is most commonly used to validate new drug discovery assays and characterize orphan targets. 16 lead compounds were identified as PDCL3 inhibitors and their potency and efficacy in inhibition of PDCL3 was validated. The structures of these 16 lead compounds, namely, Reserpine, DAPH, AC-93253 iodide, Emodin, Sunitinib malate, GW2974, Urapidil Hydrochloride, Mecamylamine hydrochloride, (−)-MK-801 hydrogen maleate, AGK2, Tyrphostin AG 112, Tyrphostin 23, Tyrphostin 51, I-Ome-Tyrophostin AG 538, and Isoliquiritgenin are provided herein at FIG. 14B.
as §1, with “validated. […] Chemical formulas for” for “validated. The structures of”, “these compounds” for “these 16 lead compounds, namely, Reserpine, DAPH, AC-93253 iodide, Emodin, Sunitinib malate, GW2974, Urapidil Hydrochloride, Mecamylamine hydrochloride, (−)-MK-801 hydrogen maleate, AGK2, Tyrphostin AG 112, Tyrphostin 23, Tyrphostin 51, I-Ome-Tyrophostin AG 538, and Isoliquiritgenin”, “herein in” for “herein at”
`CC12NC(Cc3ccccc31)c1ccccc12.O=C(O)/C=C/C(=O)O` (single isomer, unassigned; (-)) [(−)-MK-801 hydrogen maleate, 1-Methyl-16-azatetracyclo[7.6.1.02,7.010,15]hexadeca-2,4,6,10,12,14-hexaene (2E)-2-butenedioate (1:1)] was tested, and the “identified as PDCL3 inhibitor / specifically targeting PDCL3” value was “identified as specifically targeting PDCL3”.
For `CC[n+]1c(/C=C/C=C2/N(C)c3ccccc3C2(C)C)sc2ccccc21.[I-]` [AC-93253 iodide, 3-Ethyl-2-[(1E,3E)-3-(1,3,3-trimethyl-1,3-dihydro-2H-indol-2-ylidene)-1-propen-1-yl]-1,3-benzothiazol-3-ium iodide], the “identified as PDCL3 inhibitor / specifically targeting PDCL3” value was “identified as specifically targeting PDCL3”.
`N#C/C(=C\c1ccc(-c2cc(Cl)ccc2Cl)o1)C(=O)Nc1cccc2ncccc12` [AGK2, (2E)-2-Cyano-3-[5-(2,5-dichlorophenyl)-2-furyl]-N-(5-quinolinyl)acrylamide] was tested, and the “identified as PDCL3 inhibitor / specifically targeting PDCL3” value was “identified as specifically targeting PDCL3”.
For `O=C1NC(=O)c2cc(Nc3ccccc3)c(Nc3ccccc3)cc21` [DAPH, 5,6-Dianilino-1H-isoindole-1,3(2H)-dione], the “identified as PDCL3 inhibitor / specifically targeting PDCL3” value was “identified as specifically targeting PDCL3”.
For `Cc1cc(O)c2c(c1)C(=O)c1cc(O)cc(O)c1C2=O` [Emodin, 1,3,8-Trihydroxy-6-methyl-9,10-anthraquinone], the “identified as PDCL3 inhibitor / specifically targeting PDCL3” value was “identified as specifically targeting PDCL3”.
With `CN(C)c1cc2c(Nc3ccc4c(cnn4Cc4ccccc4)c3)ncnc2cn1` [GW2974, N4-(1-Benzyl-1H-indazol-5-yl)-N6,N6-dimethylpyrido[3,4-d]pyrimidine-4,6-diamine] the “identified as PDCL3 inhibitor / specifically targeting PDCL3” value was “identified as specifically targeting PDCL3”.
In the case of `COc1cc(C=C(C#N)C(=O)c2ccc(O)c(O)c2)cc(I)c1O` [I-Ome-Tyrophostin AG 538, α-Cyano-(3-methoxy-4-hydroxy-5-iodocinnamoyl)-(3′,4′-dihydroxyphenyl)ketone], the “identified as PDCL3 inhibitor / specifically targeting PDCL3” value is reported as “identified as specifically targeting PDCL3”.
`O=C(/C=C/c1ccc(O)cc1)c1ccc(O)cc1O` [Isoliquiritgenin, (E)-1-(2,4-dihydroxyphenyl)-3-(4-hydroxyphenyl)prop-2-en-1-one] was tested, and the “identified as PDCL3 inhibitor / specifically targeting PDCL3” value was “identified as specifically targeting PDCL3”.
In the case of `CNC1(C)C2CCC(C2)C1(C)C.Cl` (centres unmarked) [Mecamylamine hydrochloride, N,2,3,3-Tetramethylbicyclo[2.2.1]heptan-2-amine hydrochloride (1:1)], the “identified as PDCL3 inhibitor / specifically targeting PDCL3” value is reported as “identified as specifically targeting PDCL3”.
For `COC(=O)[C@H]1[C@H]2C[C@@H]3c4[nH]c5cc(OC)ccc5c4CCN3C[C@H]2C[C@@H](OC(=O)c2cc(OC)c(OC)c(OC)c2)[C@@H]1OC` [Reserpine, Methyl (3β,16β,17α,18β,20α)-11,17-dimethoxy-18-[(3,4,5-trimethoxybenzoyl)oxy]yohimban-16-carboxylate], the “identified as PDCL3 inhibitor / specifically targeting PDCL3” value was “identified as specifically targeting PDCL3”.
In the case of `CCN(CC)CCNC(=O)c1c(C)[nH]c(/C=C2\C(=O)Nc3ccc(F)cc32)c1C.O=C(O)C[C@H](O)C(=O)O` [Sunitinib malate, (2S)-2-Hydroxysuccinic acid-N-[2-(diethylamino)ethyl]-5-[(Z)-(5-fluoro-2-oxo-1,2-dihydro-3H-indol-3-ylidene)methyl]-2,4-dimethyl-1H-pyrrole-3-carboxamide (1:1)], the “identified as PDCL3 inhibitor / specifically targeting PDCL3” value is reported as “identified as specifically targeting PDCL3”.
With `N#CC(C#N)=Cc1ccc(O)c(O)c1` [Tyrphostin 23, (3,4-Dihydroxybenzylidene)malononitrile] the “identified as PDCL3 inhibitor / specifically targeting PDCL3” value was “identified as specifically targeting PDCL3”.
`N#CC(C#N)=C(N)/C(C#N)=C/c1cc(O)c(O)c(O)c1` [Tyrphostin 51, (3Z)-2-Amino-4-(3,4,5-trihydroxyphenyl)-1,3-butadiene-1,1,3-tricarbonitrile] was tested, and the “identified as PDCL3 inhibitor / specifically targeting PDCL3” value was “identified as specifically targeting PDCL3”.
In the case of `N#CC(C#N)=C(N)/C(C#N)=C/c1ccc(O)cc1` [Tyrphostin AG 112, (3Z)-2-Amino-4-(4-hydroxyphenyl)-1,3-butadiene-1,1,3-tricarbonitrile], the “identified as PDCL3 inhibitor / specifically targeting PDCL3” value is reported as “identified as specifically targeting PDCL3”.
`COc1ccccc1N1CCN(CCCNc2cc(=O)n(C)c(=O)n2C)CC1` [Urapidil Hydrochloride, 6-({3-[4-(2-Methoxyphenyl)-1-piperazinyl]propyl}amino)-1,3-dimethyl-2,4(1H,3H)-pyrimidinedione] was tested, and the “identified as PDCL3 inhibitor / specifically targeting PDCL3” value was “identified as specifically targeting PDCL3”.

The compounds below were run on VEGFR-2 (assay: Cycloheximide-chase / VEGF-induced downregulation of VEGFR-2). Conditions: PAE cells, cycloheximide 20 μg/ml, 90 min.
Type: cell-based
Procedure: FIG. 2A. Illustrated is the schematic of treatment of cells with cycloheximide (CHX) and VEGF. PAE cells co-expressing VEGFR-2 with empty vector (pMSCV) or PDCL3 were incubated with CHX for 90 minutes followed by stimulation with VEGF for indicated times. Whole cell lysates was blotted for VEGFR-2 and loading control protein, PLCγ1. FIG. 2B. Shown are the quantification of the half-life of mature VEGFR-2 and pre-mature VEGFR-2 based on the VEGFR-2 blot from the panel FIG. 2A. FIGS. 2C-2D. PAE cells co-expressing VEGFR-2 with empty vector (pMSCV) or PDCL3 were stimulated with VEGF for indicated times and whole cell lysates were processed as panel FIG. 2A.
PAE cells expressing VEGFR-2 alone or together with PDCL3 were serum-starved for overnight followed by incubation of cells with serum-free DMEM medium containing cycloheximide (20 μg/ml, 90 min). Cells then were stimulated with VEGF for various times to downregulate cell surface VEGFR-2. Cells were lysed and whole cell lysates was blotted for VEGFR-2 using anti-VEGFR-2 antibody. For measuring half-life of PDCL3 and HA-tagged mutant PDCL3, cells were incubated with serum-free DMEM medium containing cycloheximide (20 μg/ml) for indicated times and cells were lysed and whole cell lysates was blotted for PDCL3.
With `C[C@@H]1C[C@@H]([C@H](O)CC2CC(=O)NC(=O)C2)C(=O)[C@@H](C)C1` [Cycloheximide] the VEGFR-2 protein synthesis was “inhibited VEGFR-2 protein synthesis”.

These compounds were tested on VEGFR-2 (assay: In vitro transcription/translation of VEGFR-2). Conditions: not given.
Type: biochemical
Procedure: FIG. 1A. HEK-293 cells expressing VEGFR-2 were transfected with different concentrations of C-terminus Myc-tagged PDCL3. After 48 hours cells were lysed and whole cell lysates (WCL) were blotted for VEGFR-2, PDCL3 and Hsp70 for loading control. Quantification of premature (newly synthesized and partially glycosylated VEGFR-2 corresponding to lower molecular weight) and mature (fully glycosylated) forms of VEGFR-2 is shown. Mean results of three independent experiments are shown. *P=0.04 and […]. FIG. 1B. Human umbilical vein endothelial cells (HUVECs) were transfected with control siRNA or PDCL3-siRNA. After 48 hours cells serum-starved for overnight followed by stimulation with VEGF for 10 minutes. Cells were lysed and whole cell lysates were blotted for phospho-Y1054-VEGFR-2, total VEGFR-2, PDCL3 and Hsp70 for loading control. FIG. 1C. Thermo-induced aggregation of VEGFR-2 was measured using PSA dye as described in the materials and method section. FIG. 1D. In vitro transcription/translation of VEGFR-2 in the absence or presence of exogenous recombinant PDCL3 was performed as described in the materials and method section and schematic of the procedure is shown. FIG. 1E. In vitro translated VEGFR-2 protein in the absence or presence of exogenous recombinant PDCL3 was blotted for VEGFR-2. FIG. 1F. […]
For `CC(C)C[C@@H](C=O)NC(=O)[C@H](CC(C)C)NC(=O)[C@H](CC(C)C)NC(=O)OCc1ccccc1` [MG132] (Cbz-Leu-Leu-Leu-aldehyde), the “yield of in vitro translated VEGFR-2” value was “this effect of PDCL3 was further augmented”.

Reference: patent US11406709B2, “Therapeutic and research application of PDCL3” (TRUSTEES OF BOSTON UNIVERSITY, priority 2014, dated 2022)
